Assay results from US11866474B2, “Modulating angiogenesis by proteomimetics of vascular endothelial growth factor” (UNIVERSITY OF SOUTH FLORIDA, priority 2021, dated 2024).

Columns and labels:
[1] = target: T1, VEGFR-2 extracellular domain (Met 1-Glu 764) (Homo sapiens, UniProt P35968); assay: Surface plasmon resonance binding to VEGFR-2 extracellular domain; details: for Binding affinity (Kd) to VEGFR-2 as determined by SPR: extracellular domain, one-to-one binding model
T1 construct: VEGFR-2 extracellular domain (Met 1-Glu 764); purchased Creative BioMart USA KDR-6966H
Experimental: (§1) Surface plasmon resonance (SPR) assays were carried out to determine the binding affinities of the VEGF mimic sequences toward the extracellular domains of VEGFR-1 and VEGFR-2 (FIGS. 13 and 14).
(§2) Binding kinetics of VEGF mimics to VEGFR-1 were measured by surface plasmon resonance (SPR) using a Biacore T200 (General Electric Co.). […] protein extracellular domain (Met 1-Asn 756) (FLT1-3809H, Creative BioMart USA) was covalently coupled to CMS chip following manufacturer's instructions. Samples were prepared in RBS-EP+ buffer (pH 7.4) at different concentration and flowed over the sensor chip to interact with the immobilized protein, followed by the running buffer. The dissociation data was collected, and a different concentration was assayed after redundant samples were removed from the protein by treating with KCl (1 M). The final binding kinetics was obtained by fitting using the T200 software with a one-to-one binding model. Binding affinities of mimic sequences to VEGFR-2 were measured using VEGFR-2 extracellular domain (Met 1-Glu 764) (KDR-6966H, Creative BioMart USA) in a similar fashion.

VEGFR-2 = target: T2, VEGFR-2 (Homo sapiens, UniProt P35968); assay: Immunofluorescence binding assay with anti-VEGFR-2 antibody; format: cell-based; details: HUVECs treated with 10 μM, compared to control
T2 construct: endogenous in cells; host or cells: HUVEC
Experimental: (§3) On the basis of the assays conducted, the inventors speculated that distinct cell signaling and angiogenic response are due to the sequences V2 and V3 binding to different VEGFR subtypes. To further characterize the binding profiles of V2 and V3 to VEGFR-1 and VEGFR-2, immunofluorescence studies were carried out using HUVECs and antibodies specific to each receptor. Cells treated with V2 and V3 (10 μM) were fixed and treated with anti-VEGFR-1 and anti-VEGFR-2 antibodies, followed by FITC-labeled secondary antibody and a DAPI counterstain. […] HUVEC cells grown in m-Dish 35 mm, high Glass Bottom (#81158 Ibidi) were treated with V2 and V3 overnight at 37° C. Cells were then washed with TBST twice and fixed with 4% formaldehyde solution (Fisher Chemical) for 20 min at room temperature. This was followed by TBST wash twice and blocking with TBST—5% BSA blocking solution for 1 h at room temperature. After washing the cells with TBST three times, the cells were incubated with anti-VEGFR-1 antibody (Proteintech) and anti-VEGFR-2 antibody (Invitrogen) overnight at 4° C. […] A Nikon fluorescence microscope was used for imaging cells and image analysis was done with Image J software (ImageJ 5.53e, National Institute of Health, USA).

HUVECs [2] = assay: Capillary tube formation assay; format: cell-based, human; details: 2 μM, in the presence of VEGF165 (50 ng/mL), 24 h
Experimental: The ultimate effect of angiogenesis is the formation of vasculature that can support healing, survival, and proliferation. Next, the inventors used HUVECs to investigate the effect of the AA peptide sequences on the formation of capillary-like tube structures in vitro in the presence of VEGF165. […] Nutrient starved HUVECs, for 24 h in 0.5% FBS (sEBM) endothelial basal medium (EBM), were harvested and resuspended in 10% FBS (mEGM) endothelial growth medium. Cells were then seeded in 48 well plate coated with basement membrane extract (BME). To prepare the plates, Costar48 well culture plates were coated with basement membrane (Corning Matrigel Basement Membrane Matrix LDEV-free, 354234) and incubated for 30 min at 37° C. 5×10^4 cells were seeded in each well and treated with VEGF mimic sequences and/or VEGF165, or left untreated. Formation or lack thereof of tube-like structures was monitored over a 24 h period with a Nikon Inverted Microscope ECLIPSE Ti-U.

HUVECs [3] = assay: Transwell cell migration assay; format: cell-based, human; details: 10 μM, in the presence of VEGF165 (50 ng/mL), 12 h
Source text: Endothelial cell migration is an essential component of angiogenesis mediated by the VEGF pathway and can be used to assess the effect of drugs on the VEGF pathway. A Transwell migration assay was used to test the effect of the mimic sequences on the migration of human umbilical endothelial cells (HUVECs). […] Given the findings that V2 has a much stronger binding affinity for VEGFR1 than VEGFR2 (FIG. 12), the inventors speculated that this stimulatory effect may be due to its specific binding to VEGFR1, the decoy receptor. It is plausible that inhibition of VEGF-A binding to VEGFR-1 leads to an increased level of VEGF-A to bind and activate VEGFR-2, an indirect activation of the main angiogenic receptor.67 Cell migration assay was performed in triplicates on Transwell permeable support, 8.0 μm pore (Corning, USA). […] Migrated cells at the bottom of the membrane were fixed with 4% paraformaldehyde and stained with Crystal Violet at 37° C. for 20 min and 10 min respectively and counted with Nikon Inverted Microscope ECLIPSE Ti-U.

VEGFR-1 = target: T3, VEGFR-1 (Homo sapiens, UniProt P17948); assay: Immunofluorescence binding assay with anti-VEGFR-1 antibody; format: cell-based; details: HUVECs treated with 10 μM, compared to control
T3 construct: immunofluorescence studies were carried out using HUVECs and antibodies specific to each receptor; endogenous in cells; host or cells: HUVEC
Experimental: as §3

VEGFR-2 (P-VEGFR-2) = assay: Western blot of VEGFR-2 phosphorylation in HUVEC lysates; format: cell-based, human; details: with VEGF-A stimulation
Experimental: (§4) The effect of VEGF-mimicking sequences on VEGF-A-mediated activation of Akt, a key VEGF downstream signal,^68 and VEGFR-2 was then examined by Western blot (FIG. 8). […] However, the activation of the VEGF pathway by V2 and QK is dependent on the presence of VEGF-A (FIG. 8E). […] HUVECs (1×10^6) were starved for 24 h and treated with a V1, V2, V3 and QK in the presence or absence of VEGF-A165 at 37° C. for 24 h. Cells were then lysed with a lysis buffer containing Protease and Phosphatase Inhibitor (Thermo Scientific) to obtain total cellular proteins, and the amount of protein was quantified using the BCA Protein Assay Kit (Thermo Scientific, Waltham, MA). Proteins were then denatured by boiling at 100° C. for 10 min in the sample buffer and separated by electrophoresis on 10% SDS-[…] minigels. Target proteins were transferred to polyvinylidene difluoride membranes and blocked with 5% BSA in TBST solution for 1 h and then washed three times with TBST (5 min each time). […]

Akt (P-AKT) = assay: Western blot of Akt phosphorylation in HUVEC lysates; format: cell-based, human; details: with VEGF-A stimulation
Experimental: as §4

[4] = target: T4, VEGFR-1 extracellular domain (Met 1-Asn 756) (Homo sapiens, UniProt P17948); assay: Surface plasmon resonance binding to VEGFR-1 extracellular domain; details: one-to-one binding model
T4 construct: VEGF-1 protein extracellular domain (Met 1-Asn 756); purchased Creative BioMart USA FLT1-3809H
Experimental: as §1, §2

HUVECs [5] = assay: Wound healing (scratch-wound motility) assay; format: cell-based, human; details: 10 μM, in the presence of VEGF165 (50 ng/mL), 24 h
Experimental: Wound healing is facilitated by the VEGF pathway's effect on cell migration and proliferation.14 The effect of the helical mimic sequences on cell migration and invasion was tested on HUVECs in the presence of VEGF165 using a scratch-wound motility assay. […] HUVEC cells (10^5) were seeded on a 12 well tissue culture plate and allowed to grow for 12 h. The attached cells were then scratched with a sterile […] pipette tip and treated with mimic sequences (10 μM) and/or VEGF165 (50 ng/mL) in serum free medium. […] The wound widths were measured by ImageJ (version 1.50).

T1 sequence (P35968 20-764): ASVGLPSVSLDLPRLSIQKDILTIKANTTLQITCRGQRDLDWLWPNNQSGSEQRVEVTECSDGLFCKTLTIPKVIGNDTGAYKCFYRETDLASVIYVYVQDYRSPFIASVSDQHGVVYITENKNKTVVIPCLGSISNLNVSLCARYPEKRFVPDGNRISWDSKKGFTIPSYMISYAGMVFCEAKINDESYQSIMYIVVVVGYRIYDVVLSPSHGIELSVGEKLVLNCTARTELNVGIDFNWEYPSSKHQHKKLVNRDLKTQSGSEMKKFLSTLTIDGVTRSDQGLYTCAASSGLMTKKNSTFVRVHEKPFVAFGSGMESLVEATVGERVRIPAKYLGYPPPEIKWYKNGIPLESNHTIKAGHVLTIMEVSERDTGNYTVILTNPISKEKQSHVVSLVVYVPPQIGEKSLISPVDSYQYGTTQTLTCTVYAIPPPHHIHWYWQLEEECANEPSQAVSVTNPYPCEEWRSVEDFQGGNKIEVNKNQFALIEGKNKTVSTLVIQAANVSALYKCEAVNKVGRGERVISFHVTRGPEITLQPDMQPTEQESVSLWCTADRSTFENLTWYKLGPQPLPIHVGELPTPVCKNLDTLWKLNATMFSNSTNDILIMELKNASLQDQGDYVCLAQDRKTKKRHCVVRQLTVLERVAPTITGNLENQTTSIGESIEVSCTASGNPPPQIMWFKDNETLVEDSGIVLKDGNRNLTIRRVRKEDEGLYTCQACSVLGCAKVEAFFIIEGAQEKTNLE
T4 sequence (P17948 27-756): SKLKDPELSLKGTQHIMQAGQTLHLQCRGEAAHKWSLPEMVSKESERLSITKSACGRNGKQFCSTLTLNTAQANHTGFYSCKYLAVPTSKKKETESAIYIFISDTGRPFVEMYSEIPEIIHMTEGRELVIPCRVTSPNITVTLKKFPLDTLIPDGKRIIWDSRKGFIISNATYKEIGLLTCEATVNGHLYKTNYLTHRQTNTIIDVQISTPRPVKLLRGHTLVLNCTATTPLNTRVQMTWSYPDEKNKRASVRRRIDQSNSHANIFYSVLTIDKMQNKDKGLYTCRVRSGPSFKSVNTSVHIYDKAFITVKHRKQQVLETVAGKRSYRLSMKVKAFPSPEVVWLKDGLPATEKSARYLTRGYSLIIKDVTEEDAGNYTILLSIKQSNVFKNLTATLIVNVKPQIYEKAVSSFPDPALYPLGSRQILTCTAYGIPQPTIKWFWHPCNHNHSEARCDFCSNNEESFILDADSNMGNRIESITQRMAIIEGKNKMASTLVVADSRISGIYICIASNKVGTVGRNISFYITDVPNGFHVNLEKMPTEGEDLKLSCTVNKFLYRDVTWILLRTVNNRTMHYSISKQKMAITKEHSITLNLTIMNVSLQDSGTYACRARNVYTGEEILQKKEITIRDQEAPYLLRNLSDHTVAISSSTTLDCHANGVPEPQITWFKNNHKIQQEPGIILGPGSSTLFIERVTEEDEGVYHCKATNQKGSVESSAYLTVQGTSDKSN
T2 sequence (P35968 20-1356): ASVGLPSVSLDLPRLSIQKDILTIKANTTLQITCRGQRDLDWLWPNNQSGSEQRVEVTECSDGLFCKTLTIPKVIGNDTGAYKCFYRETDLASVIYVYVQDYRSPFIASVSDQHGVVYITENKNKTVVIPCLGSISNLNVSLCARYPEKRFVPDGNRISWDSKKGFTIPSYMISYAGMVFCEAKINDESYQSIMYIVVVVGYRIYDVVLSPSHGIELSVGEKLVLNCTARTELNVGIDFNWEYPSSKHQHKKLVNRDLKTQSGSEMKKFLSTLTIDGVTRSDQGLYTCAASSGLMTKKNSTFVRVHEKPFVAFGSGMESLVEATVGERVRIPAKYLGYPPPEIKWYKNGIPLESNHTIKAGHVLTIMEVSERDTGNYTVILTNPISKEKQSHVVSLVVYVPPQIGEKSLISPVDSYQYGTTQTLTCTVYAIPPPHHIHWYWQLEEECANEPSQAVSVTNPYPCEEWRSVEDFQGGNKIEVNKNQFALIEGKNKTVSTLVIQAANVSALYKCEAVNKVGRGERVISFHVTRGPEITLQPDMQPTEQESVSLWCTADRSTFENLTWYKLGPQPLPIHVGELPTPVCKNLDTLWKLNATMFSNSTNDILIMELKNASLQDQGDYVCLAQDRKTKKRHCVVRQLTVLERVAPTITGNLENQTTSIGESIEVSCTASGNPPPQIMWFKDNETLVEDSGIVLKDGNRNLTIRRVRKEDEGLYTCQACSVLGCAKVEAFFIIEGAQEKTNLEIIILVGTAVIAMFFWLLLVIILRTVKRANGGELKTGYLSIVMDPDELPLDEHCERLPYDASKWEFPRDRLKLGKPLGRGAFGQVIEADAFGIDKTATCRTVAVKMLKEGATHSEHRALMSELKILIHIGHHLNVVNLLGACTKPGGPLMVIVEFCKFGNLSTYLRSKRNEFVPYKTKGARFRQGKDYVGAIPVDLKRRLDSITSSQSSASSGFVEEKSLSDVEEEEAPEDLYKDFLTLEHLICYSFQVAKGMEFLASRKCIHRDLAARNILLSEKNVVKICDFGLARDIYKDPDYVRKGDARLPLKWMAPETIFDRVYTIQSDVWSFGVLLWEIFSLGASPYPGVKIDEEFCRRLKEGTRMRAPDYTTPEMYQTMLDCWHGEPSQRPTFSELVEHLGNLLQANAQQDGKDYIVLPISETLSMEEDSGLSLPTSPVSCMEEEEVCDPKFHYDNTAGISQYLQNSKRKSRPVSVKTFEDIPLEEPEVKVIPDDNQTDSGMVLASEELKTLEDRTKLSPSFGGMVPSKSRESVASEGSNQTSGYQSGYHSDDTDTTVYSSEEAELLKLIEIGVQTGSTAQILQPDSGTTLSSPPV
T3 sequence (P17948 27-1338): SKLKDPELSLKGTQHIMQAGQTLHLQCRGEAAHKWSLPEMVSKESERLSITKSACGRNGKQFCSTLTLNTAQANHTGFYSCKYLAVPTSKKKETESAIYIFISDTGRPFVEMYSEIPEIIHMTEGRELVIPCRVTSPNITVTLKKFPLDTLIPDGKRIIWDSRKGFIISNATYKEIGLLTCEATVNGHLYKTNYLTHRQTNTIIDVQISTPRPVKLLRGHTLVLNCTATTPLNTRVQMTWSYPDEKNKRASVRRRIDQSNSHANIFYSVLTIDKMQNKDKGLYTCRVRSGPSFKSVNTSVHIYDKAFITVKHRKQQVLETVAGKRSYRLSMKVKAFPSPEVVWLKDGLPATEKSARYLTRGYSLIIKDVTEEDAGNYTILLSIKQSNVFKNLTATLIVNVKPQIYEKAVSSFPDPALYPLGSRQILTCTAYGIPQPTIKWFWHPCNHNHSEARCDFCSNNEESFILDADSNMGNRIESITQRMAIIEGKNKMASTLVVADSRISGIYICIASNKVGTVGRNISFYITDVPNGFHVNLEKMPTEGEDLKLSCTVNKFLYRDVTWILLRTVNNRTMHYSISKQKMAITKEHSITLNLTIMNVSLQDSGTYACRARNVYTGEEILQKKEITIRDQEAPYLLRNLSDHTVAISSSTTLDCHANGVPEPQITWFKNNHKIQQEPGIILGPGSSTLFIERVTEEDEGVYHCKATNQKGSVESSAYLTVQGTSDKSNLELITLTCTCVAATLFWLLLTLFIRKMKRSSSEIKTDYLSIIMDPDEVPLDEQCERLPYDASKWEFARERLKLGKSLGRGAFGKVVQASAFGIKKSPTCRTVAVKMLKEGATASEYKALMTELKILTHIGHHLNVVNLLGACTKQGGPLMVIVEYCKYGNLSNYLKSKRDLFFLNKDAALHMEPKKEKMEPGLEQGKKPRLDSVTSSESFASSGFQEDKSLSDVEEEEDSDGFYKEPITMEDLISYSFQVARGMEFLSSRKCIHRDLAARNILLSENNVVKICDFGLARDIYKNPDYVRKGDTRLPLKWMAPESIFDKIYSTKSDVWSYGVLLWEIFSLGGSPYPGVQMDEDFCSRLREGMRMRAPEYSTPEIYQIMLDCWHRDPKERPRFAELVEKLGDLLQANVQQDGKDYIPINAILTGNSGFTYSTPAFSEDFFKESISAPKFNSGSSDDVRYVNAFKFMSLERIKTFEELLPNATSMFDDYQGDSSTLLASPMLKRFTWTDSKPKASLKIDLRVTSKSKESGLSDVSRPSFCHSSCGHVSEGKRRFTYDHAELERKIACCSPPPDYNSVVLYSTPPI

Structure (SMILES)	Selectivity for VEGFR2 (SPR binding) ([1]; VEGFR2 over VEGFR1)	Binding affinity (Kd) to VEGFR-2 as determined by SPR [1]	Fluorescence with anti-VEGFR-2 antibody (VEGFR-2)	Capillary tube formation (HUVECs [2])	Number of HUVECs migrating (Transwell) (HUVECs [3])	Fluorescence with anti-VEGFR-1 antibody (VEGFR-1)	Inhibition of phosphorylation of VEGFR-2 at low concentration (VEGFR-2 (P-VEGFR-2); 100 nM)	Phosphorylation of VEGFR-2 (P-VEGFR-2) (VEGFR-2 (P-VEGFR-2); 0.1, 0.5, 1, 10 μM)	Inhibition of phosphorylation of Akt at low concentration (Akt (P-AKT); 100 nM)	Phosphorylation of Akt (P-AKT) (Akt (P-AKT); 0.1, 0.5, 1, 10 μM)	Binding affinity (Kd) to VEGFR-1 as determined by SPR [4]	Cell migration in wound healing assay (HUVECs [5])
CC(=O)N[C@@H](CCC(=O)O)CN(CC(=O)N[C@@H](CC(C)C)CN(CC(=O)N[C@@H](Cc1c[nH]c2ccccc12)CN(CC(=O)N[C@@H](CCC(=O)O)CN(CC(=O)N[C@@H](Cc1ccc(O)cc1)CN(CC(=O)N[C@@H](CCCCN)CN(CC(=O)N[C@@H](Cc1ccc(O)cc1)CN(CC(=O)N[C@@H](C)CN(CC(N)=O)S(C)(=O)=O)S(C)(=O)=O)S(C)(=O)=O)S(=O)(=O)CCN)S(=O)(=O)CC(C)C)S(=O)(=O)CC(C)C)S(=O)(=O)CCN)S(=O)(=O)CCN [V3]	remarkable selectivity	submicromolar binding affinity	significant reduction of fluorescence	substantial inhibition of capillary tube formation	significantly lowered	almost no effect on intensity of fluorescence	potent inhibition	dose-dependent inhibition of phosphorylation	potent inhibition	dose-dependent inhibition of phosphorylation	good binding affinities	virtually completely blocked wound motility
CC(=O)N[C@@H](CCC(=O)O)CN(CC(=O)N[C@@H](CC(C)C)CN(CC(=O)N[C@@H](Cc1ccccc1)CN(CC(=O)N[C@@H](CCC(=O)O)CN(CC(=O)N[C@@H](Cc1ccc(O)cc1)CN(CC(=O)N[C@@H](CCCCN)CN(CC(=O)N[C@@H](Cc1ccc(O)cc1)CN(CC(=O)N[C@@H](C)CN(CC(N)=O)S(C)(=O)=O)S(C)(=O)=O)S(C)(=O)=O)S(=O)(=O)CCN)S(=O)(=O)CC(C)C)S(=O)(=O)CC(C)C)S(=O)(=O)CCN)S(=O)(=O)CCN [V2]	–	good binding affinities	–	–	–	–	–	–	–	–	submicromolar binding affinity	–
